Experimental data from US10968193B2, “Antidiabetic bicyclic compounds” (Merck Sharp & Dohme Corp., priority 2014, dated 2021).

target: T1, human GPR40 (Homo sapiens, UniProt O14842); assay: Inositol Phosphate Turnover (IP1) Assay 3; assay type: cell-based; conditions: HEK cells stably expressing human GPR40
T1 construct: expressed in transfected cells; host or cells: HEK cells stably expressing the aequorin reporter
Summary of the method: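 HEK cells stably expressing human GPR40, plated 16 h before, were treated with compound for 60 min at 37 °C in stimulation buffer. IP1 measured by HTRF (665/620 nm ratio) against an IP1 standard curve; activity normalized to a reference compound, EC50 from 4-parameter fit.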

T1 sequence (O14842 whole entry): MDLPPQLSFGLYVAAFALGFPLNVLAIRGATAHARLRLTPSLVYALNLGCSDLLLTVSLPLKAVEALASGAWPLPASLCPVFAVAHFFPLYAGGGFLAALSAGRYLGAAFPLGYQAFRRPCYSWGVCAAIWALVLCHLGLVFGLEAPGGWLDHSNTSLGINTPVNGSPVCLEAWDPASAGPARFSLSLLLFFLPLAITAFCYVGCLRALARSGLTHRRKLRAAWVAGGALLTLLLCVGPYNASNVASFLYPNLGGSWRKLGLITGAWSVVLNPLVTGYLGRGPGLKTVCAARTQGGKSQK

Structure (SMILES)	EC50
COc1cc(-c2ccc(C3CCc4ccc([C@H](C5CC5)[C@H](C)C(=O)O)cc4O3)cc2CNC(C)(C)C)c(F)cn1 (stereo partly drawn) [Example 233]	42 nM
COc1cc(-c2ccc(C3CCc4ccc([C@H](C5CC5)[C@H](C)C(=O)O)cc4O3)cc2CN(C)C(C)(C)C)ccn1 (stereo partly drawn) [Example 234]	21 nM
CCN(Cc1cc(C2CCc3ccc([C@H](C4CC4)[C@H](C)C(=O)O)cc3O2)ccc1-c1ccnc(OC)c1)C(C)(C)C (stereo partly drawn) [Example 236]	1.3 nM
COc1cc(-c2ccc(C3CCc4ccc([C@H](C5CC5)[C@H](C)C(=O)O)cc4O3)cc2CN(C(C)C)C(C)(C)C)ccn1 (stereo partly drawn) [Example 237]	0.17 nM
COc1cc(-c2ccc(C3CCc4ccc([C@H](C5CC5)[C@H](C)C(=O)O)cc4O3)cc2CN2C(C)(C)CCCC2(C)C)ccn1 (stereo partly drawn) [Example 238]	0.14 nM
CCN(C)C(C)c1cc(C2CCc3ccc([C@H](C4CC4)[C@@H](C)C(=O)O)cc3O2)ccc1-c1cc(OC)ncc1F (stereo partly drawn) [Example 246]	2.2 nM
COc1cc(-c2ccc([C@@H]3CCc4ccc([C@H](C5CC5)[C@H](C)C(=O)O)cc4O3)cc2CN2CC3CC3C2)c(F)cn1 (stereo partly drawn) [Example 250, Sodium (2S,3R)-3-((2S)-2-(3-((3-azabicyclo[3.1.0]hexan-3-yl)methyl)-4-(5-fluoro-2-methoxypyridin-4-yl)phenyl)chroman-7-yl)-3-cyclopropyl-2-methylpropanoate]	0.19 nM
COc1cc(-c2ccc(C3CCc4ccc([C@H](C5CC5)[C@H](C)C(=O)O)cc4O3)cc2CN2[C@H](C)CC[C@@H]2C)c(F)cn1 (stereo partly drawn) [Example 251]	0.3 nM
COc1cc(-c2ccc(C3CCc4ccc([C@H](C5CC5)[C@H](C)C(=O)O)cc4O3)cc2CN2CCC3CC32)c(F)cn1 (stereo partly drawn) [Example 252]	0.7 nM
CCN(C)Cc1cc(C2CCc3ccc([C@H](C4CC4)[C@H](C)C(=O)O)cc3O2)ccc1-c1cc(OC)ncc1F (stereo partly drawn) [Example 253]	0.9 nM
COc1cc(-c2ccc(C3CCc4ccc([C@H](C5CC5)[C@H](C)C(=O)O)cc4O3)cc2CN(C)C(C)C)c(F)cn1 (stereo partly drawn) [Example 254]	1 nM
CCN(Cc1cc(C2CCc3ccc([C@H](C4CC4)[C@H](C)C(=O)O)cc3O2)ccc1-c1cc(OC)ncc1F)C(C)C (stereo partly drawn) [Example 255]	0.3 nM
COc1cc(-c2ccc(C3CCc4ccc([C@H](C5CC5)[C@H](C)C(=O)O)cc4O3)cc2CN2[C@H](C)CCC[C@H]2C)c(F)cn1 (stereo partly drawn) [Example 257]	0.4 nM
COc1cc(-c2ccc(C3CCc4ccc([C@H](C5CC5)[C@H](C)C(=O)O)cc4O3)cc2CN2[C@H](C)CCC[C@@H]2C)c(F)cn1 (stereo partly drawn) [Example 259]	0.2 nM
COc1cc(-c2ccc(C3CCc4ccc([C@H](C5CC5)[C@H](C)C(=O)O)cc4O3)cc2CN2CCCC3(CC3)C2)c(F)cn1 (stereo partly drawn) [Example 260]	0.9 nM
COc1cc(-c2ccc(C3CCc4ccc([C@H](C5CC5)[C@H](C)C(=O)O)cc4O3)cc2CN2CCC3(CC2)CC3)c(F)cn1 (stereo partly drawn) [Example 261]	0.6 nM
COc1cc(-c2ccc(C3CCc4ccc([C@H](C5CC5)[C@H](C)C(=O)O)cc4O3)cc2CN2CCCCC23CCC3)c(F)cn1 (stereo partly drawn) [Example 262]	0.2 nM
COc1cc(-c2ccc(C3CCc4ccc([C@H](C5CC5)[C@H](C)C(=O)O)cc4O3)cc2CN2CCC3(CC3)C2)c(F)cn1 (stereo partly drawn) [Example 263]	0.8 nM

Structure (SMILES)	EC50
COc1cc(-c2ccc(C3CCc4ccc([C@H](C5CC5)[C@H](C)C(=O)O)cc4O3)cc2CN2CCCC23CCC3)c(F)cn1 (stereo partly drawn) [Example 264]	0.2 nM
COc1cc(-c2ccc(C3CCc4ccc([C@H](C5CC5)[C@H](C)C(=O)O)cc4O3)cc2CN2CCCC23COC3)c(F)cn1 (stereo partly drawn) [Example 265]	0.2 nM
COc1cc(-c2ccc(C3CCc4ccc([C@H](C5CC5)[C@H](C)C(=O)O)cc4O3)cc2CN2CCC(C)(C)C2)c(F)cn1 (stereo partly drawn) [Example 266]	0.1 nM
C[C@H](C(=O)O)[C@H](c1ccc2c(c1)OC(c1ccc(-c3cc(O)ncc3F)c(CN(C)C3CCOC3)c1)CC2)C1CC1 (stereo partly drawn) [Example 268a]	0.6 nM
COc1cc(-c2ccc(C3CCc4ccc([C@H](C5CC5)[C@H](C)C(=O)O)cc4O3)cc2CN2C[C@H]3CC[C@@H]2C3)c(F)cn1 (stereo partly drawn) [Example 269]	6.2 nM
COc1cc(-c2ccc(C3CCc4ccc([C@H](C5CC5)[C@H](C)C(=O)O)cc4O3)cc2CN2C3CCCC2CC3)c(F)cn1 (stereo partly drawn) [Example 270]	0.9 nM
COc1cc(-c2ccc(C3CCc4ccc([C@H](C5CC5)[C@H](C)C(=O)O)cc4O3)cc2CN2CCC(C#N)CC2)c(F)cn1 (stereo partly drawn) [Example 271]	2.6 nM
COc1cc(-c2ccc(C3CCc4ccc([C@H](C5CC5)[C@H](C)C(=O)O)cc4O3)cc2CN2CCC(C(N)=O)CC2)c(F)cn1 (stereo partly drawn) [Example 272]	278 nM
COc1cc(-c2ccc([C@@H]3CCc4ccc([C@H](C5CC5)[C@H](C)C(=O)O)cc4O3)cc2CN(C(C)C)C(C)C)ccn1 [Example 284, Sodium (2S,3R)-3-cyclopropyl-3-((S)-2-(3-((diisopropylamino)methyl)-4-(2-methoxypyridin-4-yl)phenyl)chroman-7-yl)-2-methylpropanoate]	0.3 nM
COc1cc(-c2ccc(C3CCc4ccc([C@H](C5CC5)[C@@H](C)C(=O)O)cc4O3)cc2CN(C(C)C)C(C)C)ccn1 (stereo partly drawn) [Example 285]	4 nM
COc1cc(-c2ccc(C3CCc4ccc([C@H](C5CC5)[C@H](C)C(=O)O)cc4O3)cc2CN(C)C(C)(C)C)ccn1 (stereo partly drawn) [Example 288]	21 nM
CCN(CC)Cc1cc(C2CCc3ccc([C@H](C4CC4)[C@H](C)C(=O)O)cc3O2)ccc1-c1cc(OC)ncc1C#N (stereo partly drawn) [Example 291]	3.1 nM
COc1cc(-c2ccc(C3CCc4ccc([C@H](C5CC5)[C@H](C)C(=O)O)cc4O3)cc2CN(C(C)C)C(C)C)c(C#N)cn1 (stereo partly drawn) [Example 292]	0.1 nM
COc1cc(-c2ccc(C3CCc4ccc([C@H](C5CC5)[C@H](C)C(=O)O)cc4O3)cc2CN2CCCCC23CC3)c(C#N)cn1 (stereo partly drawn) [Example 293]	0.08 nM
CCN(Cc1cc(C2CCc3ccc([C@H](C4CC4)[C@H](C)C(=O)O)cc3O2)ccc1-c1cc(OC)ncc1C#N)C(C)C (stereo partly drawn) [Example 294]	0.5 nM
C[C@H](C(=O)O)[C@H](c1ccc2c(c1)OC(c1ccc(-c3cc(O)ncc3C#N)c(CN3CCCCC34CC4)c1)CC2)C1CC1 (stereo partly drawn) [Example 295]	85 nM
COc1ccc(F)c(-c2ccc(C3CCc4ccc([C@H](C5CC5)[C@H](C)C(=O)O)cc4O3)cc2CN2CCCCC23CC3)n1 (stereo partly drawn) [compound 190]	3.9 nM

More lines, now with the values ahead:

EC50	Structure (SMILES)
1.1 nM	COc1cc(-c2ccc(C3CCc4ccc([C@H](C5CC5)[C@H](C)C(=O)O)cc4O3)cc2CN2[C@H](C)CCC[C@@H]2C)ccn1 (stereo partly drawn) [Example 239]
1.4 nM	COc1cc(-c2ccc(C3CCc4ccc([C@H](C5CC5)[C@H](C)C(=O)O)cc4O3)cc2CN2[C@H](C)CCC[C@H]2C)ccn1 (stereo partly drawn) [Example 240]
1.1 nM	COc1cc(-c2ccc(C3CCc4ccc([C@H](C5CC5)[C@H](C)C(=O)O)cc4O3)cc2CN2[C@@H](C)CCC[C@@H]2C)ccn1 (stereo partly drawn) [Example 241]
3.1 nM	COc1cc(-c2ccc(C3CCc4ccc([C@H](C5CC5)[C@H](C)C(=O)O)cc4O3)cc2CN2CCCCC2(C)C)ccn1 (stereo partly drawn) [Example 242]
810 nM	COc1cc(-c2ccc(C3CCc4ccc([C@H](C5CC5)[C@H](C)C(=O)O)cc4O3)cc2CNC(C)C)ccn1 (stereo partly drawn) [Example 243]
14.2 nM	COc1cc(-c2ccc(C3CCc4ccc([C@H](C5CC5)[C@H](C)C(=O)O)cc4O3)cc2C(C)N2CCCC2)ccn1 (stereo partly drawn) [Example 249]
4.3 nM	COc1cc(-c2ccc(C3CCc4ccc([C@H](C5CC5)[C@H](C)C(=O)O)cc4O3)cc2CN2[C@H](C)CC[C@H]2C)ccn1 (stereo partly drawn) [Example 274]
2.8 nM	COc1cc(-c2ccc(C3CCc4ccc([C@H](C5CC5)[C@H](C)C(=O)O)cc4O3)cc2CN2[C@H](C)CC[C@@H]2C)ccn1 (stereo partly drawn) [Example 275]
0.2 nM	COc1cc(-c2ccc(C3CCc4ccc([C@H](C5CC5)[C@H](C)C(=O)O)cc4O3)cc2CN2CCCCC23CC3)ccn1 (stereo partly drawn) [Example 276]
1.9 nM	COc1cc(-c2ccc(C3CCc4ccc([C@H](C5CC5)[C@H](C)C(=O)O)cc4O3)cc2CN2CCCC3(CC3)C2)ccn1 (stereo partly drawn) [Example 277]
19 nM	COc1cc(-c2ccc(C3CCc4ccc([C@H](C5CC5)[C@H](C)C(=O)O)cc4O3)cc2CN2CCCC2)ccn1 (stereo partly drawn) [Example 278]
30 nM	COc1cc(-c2ccc(C3CCc4ccc([C@H](C5CC5)[C@H](C)C(=O)O)cc4O3)cc2CN2CCC[C@@H]2C)ccn1 (stereo partly drawn) [Example 279]
16 nM	COc1cc(-c2ccc(C3CCc4ccc([C@H](C5CC5)[C@H](C)C(=O)O)cc4O3)cc2CN2CCC[C@H]2C)ccn1 (stereo partly drawn) [Example 280]
5.7 nM	COc1cc(-c2ccc(C3CCc4ccc([C@H](C5CC5)[C@H](C)C(=O)O)cc4O3)cc2CN2CCCC2(C)C)ccn1 (stereo partly drawn) [Example 281]
7.4 nM	COc1cc(-c2ccc(C3CCc4ccc([C@H](C5CC5)[C@H](C)C(=O)O)cc4O3)cc2CN2CCC(C)(C)C2)ccn1 (stereo partly drawn) [Example 282]
11 nM	COc1cc(-c2ccc(C3CCc4ccc([C@H](C5CC5)[C@H](C)C(=O)O)cc4O3)cc2CN(C)C(C)C)ccn1 (stereo partly drawn) [Example 286]
3.3 nM	CCN(Cc1cc(C2CCc3ccc([C@H](C4CC4)[C@H](C)C(=O)O)cc3O2)ccc1-c1ccnc(OC)c1)C(C)C (stereo partly drawn) [Example 287]
72 nM	COc1cc(-c2ccc(C3CCc4ccc([C@H](C5CC5)[C@H](C)C(=O)O)cc4O3)cc2CN2[C@H]3CC[C@@H]2CC3)ccn1 (stereo partly drawn) [Example 289]
22 nM	COc1cc(-c2ccc(C3CCc4ccc([C@H](C5CC5)[C@H](C)C(=O)O)cc4O3)cc2CN2C3CCCC2CC3)ccn1 (stereo partly drawn) [Example 290]
